Key:
Assay type in all cases: cell-based
[1] = tested on: HCT116 IDH1/2 WT cells; experiment: H3K9me2 Western blot after exogenous 2-HG treatment; settings: 10 mM 2-HG or 1 mM Cell-Permeable 2-HG for about 30 days
Experimental: In order to evaluate the effect of IDH1 mutations, IDH2 mutations and 2-HG on H3K9me2, HCT116 colorectal cells that were engineered to endogenously express various clinically relevant mutations in IDH1 or IDH2 (Horizon Discovery, Cambridge, UK) were assayed for changes in H3K9me2 levels. […] HCT116 IDH1/2 WT cells were also exogenously treated with 10 mM 2-HG or 1 mM Cell-Permeable 2-HG for about 30 days. All cells were grown in McCoy's 5A Media (Life Technologies, Carlsbad, Calif.) containing 10% Fetal Bovine Serum (Hyclone, Logan, Utah). At least 10^6 cells per line were harvested and subject to a Histone Acid Extraction® Protocol (Abcam, Cambridge, Mass.). Cells in culture were rinsed with PBS and detached using 0.25% trypsin. Trypsin was deactivated using fresh media and the sample was spun down at 1000 rpm for 5 minutes. Media was aspirated and samples were kept at −80° C. until ready for processing.
Cells were washed twice in ice-cold PBS supplemented with 5 mM sodium butyrate (Sigma-Aldrich, St. Louis Mo.). Cells were then resuspended in Triton Extraction Buffer (TEB: PBS containing 0.5% TritonX 100(v/v), 2 mM phenylmethylsulfonyl fluoride (PMSF), 0.02% (w/v) sodium azide) also supplemented with 5 mM sodium butyrate at density of 10^7 cells per mL. […] Histone extracts were subsequently quantified using a detergent compatible (“DC”) protein assay kit (BioRad, Hercules, Calif.). […]

[2] = tested on: SNU1079 cholangiocarcinoma cells (IDH1-R132C/WT), IDH2-WT background; experiment: H3K9me2 Western blot in SNU1079 expressing IDH2 WT; settings: doxycycline-induced IDH2 WT, day 6
Experimental: (§1) As disclosed in Example 4, compound 162 is specific for IDH1 mutations. As such, it is a useful compound to determine the contribution of IDH2 to H3K9me2 methylation levels. SNU1079 cholangiocarcinoma cells (KCLB) contain an IDH1 mutation (IDH1-R132C/WT). These cells were cultured in RPMI-1640 (Life Technologies, Carlsbad, Calif.) supplemented with 1% Sodium Pyruvate and 10% Tet-free fetal bovine serum (Hyclone, Logan Utah). Full length IDH2 cDNAs (WT or R172K) were cloned into pLKO-TREX-neomycin for lentiviral transduction (Wee et al., Proc. Nat. Acad. Sci. U.S.A. 2008 105(35):13057-13062). Lentiviral particles were produced by co-transfecting the cDNA expression vector of interest with packaging plasmids Δ8.9 and VSVG into 293T cells (ATCC CRL-11268) using Transit293® transfection reagent (Mirus, Madison, Wis.). Lentiviral supernatants were then used to spin-infect SNU1079 cells in the presence of 8 μg/mL polybrene. Cells recovered overnight in fresh medium and were then selected and continually cultured in appropriate antibiotics.
(§2) SNU1079 stably expressing IDH2 isoforms were co-treated with doxycycline (100 ng/mL) final concentration to induce IDH2 (WT or R172K) expression. These lines were treated with DMSO or doses of compound 162. Cells were harvested on day 6 post-treatment and processed for histones as described above. […]

[3] = tested on: HT1080 and SNU1079 cells; experiment: Histone profiling by LC-MS/MS, compound 162 vs. DMSO; settings: 3 μM, 6 days
Experimental: (§3) Also profiled were three endogenously mutant cell lines upon modulation of the target by chemical or genetic means in order to evaluate other lysine methylation marks. We used histone acid extracts (as described in Example 1) from HT1080 and SNU1079 cells treated with 3 μM compound 162 or DMSO control for 6 days, as well as SW1353 cells that have been induced (100 ng/mL doxycycline) with IDH2 specific shRNA (shIDH2-891 or shNTC) for 6 days. Histones were further enriched with ActiveMotif® Histone purification mini kit (ActiveMotif Inc., Carlsbad, Calif.)
(§4) The purified histones were desalted by off line reversed phase chromatography on an 1200 Agilent tower (Agilent, Santa Clara, Calif.) using a Jupiter® 5 μm C4 300 Å Column 150×2 mm (Phenomenex, Torrance, Calif.). The resulting peak area was used to estimate concentration against the peak area of histones of known concentration. The desalted histones were lyophilyzed prior to lysine derivatization. […]
(§5) The data obtained via mass spectrometry was interpreted using Mascot Distiller® (Matrix Science, Boston, Mass.) for identification followed by manual verification. The peak area obtained from the data acquired was processed using Skyline Software® (v1.4.0.422 University of Washington, Seattle, Wash.) for quantitation of the peptides bearing post translational modifications.

[4] = tested on: HCT116 cells (wild type for IDH1 and IDH2); experiment: H3K9me2 Western blot in IDH1 and IDH2 wild type cell line; settings: increasing concentrations, 3-6 days
Experimental: In order to examine the role of H3K9me2 levels as marker, cells that were wild type for IDH1 and IDH2, for example HCT116 cells, were treated with a compound that inhibits IDH1 mutant activity (compound 162). HCT116 colon cells cancer cells (ATCC CCL-247) were cultured in McCoy's 5A (Life Technologies, Carlsbad, Calif.) supplemented with 10% fetal bovine serum (Hyclone, Logan Utah). These cells were treated for 3-6 days with increasing concentrations of compound 162 or DMSO vehicle as control.
Histone extracts were prepared with NuPAGE® 4×LDS Sample Buffer (Life Technologies, Carlsbad, Calif.) and heated to 70° C. for 10 minutes. Samples were run on NuPage® Novex 4-12% Bis-Tris gel (Life Technologies, Carlsbad, Calif.) using MES buffer (Life Technologies, Carlsbad, Calif.). The gel was then transferred onto nitrocellulose membrane using the iBlot system (Life Technologies, Carlsbad Calif.) on setting P3 for 7 minutes. The antibodies used are shown above in Table 1.

[5] = tested on: SNU1079 cholangiocarcinoma cells (IDH1-R132C/WT), IDH2-R172K background; experiment: H3K9me2 Western blot in SNU1079 expressing IDH2-R172K; settings: doxycycline-induced IDH2-R172K, day 6
Experimental: as §1, §2

[6] = tested on: IDH1-R132C mutant HT1080 sarcoma cells; experiment: H3K9me2 immunohistochemistry with quantitative image analysis; settings: 5 μM, 6 days
Experimental: In order to determine if changes in H3K9me2 level could be detected via immunohistochemistry, HT1080 cell lines were plated onto […] tissue culture flasks (Corning, Cat #3001, Tewksbury, Mass.). The cells were treated with DMSO or 5 μM compound 162 and incubated for 6 days, with media change at day 3. HT1080 cell pellets were harvested by removing media, washing with 1×PBS, and adding 10 ml of 10% neutral buffer formalin. Cells were then scraped from the bottom of the flask and placed in a 50 ml conical tube, filled to ˜50 ml with 10% neutral buffered formalin, and allowed to fix for 1-2 hours. […]
FFPE slides were cut at 3.5 μm thickness, mounted on charged slides (Thermo-Scientific Colormark® Plus Cat #CM-5951, West Palm Beach, Fla.) and baked at 60° C. for 1 hour. […] The secondary antibody, Ventana OmniMap® HRP-conjugated anti-mouse (Ventana Cat #760-4310 Tucson, Ariz.), was incubated for 4 minutes and detected with Ventana's ChromoMap® DAB detection kit (Ventana Cat #760-159, Tucson, Ariz.). […]
Coverslipped slides were scanned with Aperio ScanScope ® XT (Vista, Calif.) for quantitative digital image analysis. Digital images were analyzed with Visiopharm® (Hoersholm, Denmark) image analysis software. The nuclear detection algorithm detected both hematoxylin and DAB-stained nuclei in the image. […]

[7] = tested on: SW1353 chondrosarcoma cells (IDH2-R172S/WT); experiment: H3K9me2 Western blot in IDH2 mutant SW1353 cells upon IDH2 knockdown; settings: SW1353 stable lines, doxycycline 100 ng/mL, 6 days
Experimental: SW1353 chondrosarcoma cells (ATCC HTB-94) contain an activating mutation in IDH2 (IDH2-R172S/WT). These cells were cultured in RPM-1640 (Life Technologies, Carlsbad, Calif.) supplemented with 1% sodium pyruvate and 10% Tet-Free fetal bovine serum. IDH2 shRNAs were cloned into pLKO-Tet-ON-puromycin vectors. All shRNAs were validated to give sufficient knockdown of target as judged by RNA, protein, and reduced 2-HG production.
Lentiviral particles were produced by co-transfecting the shRNA plasmid of interest with packaging plasmids Δ8.9 and VSVG into 293T cells using Transit293® transfection reagent (Mirus, Madison, Wis.). Lentiviral supernatants were then used to spin-infect HT-1080 cells in the presence of 8 μg/mL polybrene. Cells recovered overnight in fresh medium and were then selected and continually cultured in appropriate antibiotics.
SW1353 stable lines were cultured with and without doxycycline (100 ng/mL final concentration) for 6 days in the absence of selection. At day 6, cells were lifted using trypsin and histones were extracted as previously described.
Histone extracts were prepared with NuPAGE® 4×LDS Sample Buffer (Life Technologies, Carlsbad, Calif.) and heated to 70° C. for 10 minutes. Samples were run on NuPage® Novex 4-12% Bis-Tris gel (Life Technologies, Carlsbad, Calif.) using MES buffer (Life Technologies, Carlsbad, Calif.). […]

[8] = tested on: SW1353 cells; experiment: Histone profiling by LC-MS/MS, IDH2 shRNA vs. non-targeting control shRNA; settings: doxycycline 100 ng/mL, 6 days, vs. shNTC
Experimental: as §3, §4, §5

O=C(O)CCC(O)C(=O)O (stereo not drawn) [2-HG, 2-hydroxyglutarate]
H3K9me2 levels (Western blot, FIG. 1B) [1]: sufficient to increase H3K9me2 levels

CC(C)[C@H]1COC(=O)N1c1ccnc(N[C@@H](C)c2ccc(Oc3ccccc3)cc2)n1 [compound 162, (S)-4-isopropyl-3-(2-(((S)-1-(4 phenoxyphenyl)ethyl)amino)pyrimidin-4-yl)oxazolidin-2-one]
H3K9me2 level (Western blot, FIG. 5 left panel) [2]: able to reduce the H3K9me2 level in a dose-dependent manner
H3K9me0 level, change from control (mass spectrometry, FIG. 7) [3]: H3K9me0 level increases
H3K9me2 level, change from control (mass spectrometry, FIG. 7) [3]: H3K9me2 level reduction
H3K9me2 levels (Western blot, FIG. 4) [4]: does not affect H3K9me2 levels
H3K9me2 level (Western blot, FIG. 5 right panel) [5]: the reduction of H3K9me2 level is attenuated
H3K9me2 levels by immunohistochemistry (FIG. 6A) [6]: decreases levels H3K9me2
decrease in H3K9me2 levels, quantitative image analysis (FIG. 6B) ([6]; entire cross section, vs DMSO): 27%

shIDH2-309: IDH2 specific shRNA, 5′ GTGGACATCCAGCTAAAGTAT 3′ (SEQ ID NO: 9)
H3K9me2 methylation level (Western blot, FIG. 3) [7]: H3K9me2 methylation level is reduced

shIDH2-891: IDH2 specific shRNA, 5′ ATCTTTGACAAGCACTATAAG 3′ (SEQ ID NO: 10)
H3K9me2 methylation level (Western blot, FIG. 3) [7]: H3K9me2 methylation level is reduced
H3K9me0 level, change from control (mass spectrometry, FIG. 7) [8]: H3K9me0 level increases
H3K9me2 level, change from control (mass spectrometry, FIG. 7) [8]: H3K9me2 level reduction

Reference: patent US20160312311A1, “MARKERS FOR ISOCITRATE DEHYDROGENASE INHIBITORS” (NOVARTIS AG, priority 2013, published 2016)
